Data: patent US9464135B2, “Epithelial membrane protein-2 (EMP2) and proliferative vitroretinopathy (PVR)” (THE REGENTS OF THE UNIVERSITY OF CALIFORNIA, priority 2009, dated 2016)

What was measured:
Format in all cases: cell-based, human
[1] = system: ARPE-19 cells; test: Collagen gel contraction assay, ARPE-19 cells; details: 1 hour pretreatment, normalized to vehicle control, read-out: concentration required to achieve 50% inhibition of the gel contraction
Description: EMP2 diabody was recombinantly constructed using a phage library to select for reactivity against a human EMP2 peptide. […] Toxicity, adhesion, and migration were assessed respectively through flow cytometry using Annexin V, binding to collagen type 1, and a wound healing assay. Collagen gel contraction was assessed using an in vitro assay.
(§1) Collagen gel contraction assays were performed as previously reported (Morales S A et al., Exp Eye Res, 85(6):790-798 (2007)). Briefly, collagen gels were prepared by combining collagen type I (BD Biosciences) 10×DMEM, and DMEM/F12. The final concentration of the collagen type I mixture was 2.5 mg/mL. The collagen solution (500 μL) was added to each well of a 24-well plate and incubated at 37° C. in 5% CO2 for 1 hour. Cultured ARPE-19 cell with modified EMP2 levels were harvested and resuspended in serum-free DMEM/F12 at a final concentration of 5×10^5/mL. ARPE-19 cells with modified EMP2 levels were seeded onto the collagen gel at a concentration of 2.5×10^5 cells per well and the percentage of contraction was measured at 24 hours. The area of the each gel was obtained by taking a picture of the gel using image capture (Gel Doc 2000; Bio-Rad, Hercules, Calif.) and quantified with NIH Image J (developed by Wayne Rasband, National Institutes of Health, Bethesda, Md.; available at http://rsb.info.nih.gov/ij/index.html). […]

[2] = system: ARPE-19/EMP2 siRNA cells; test: Collagen gel contraction assay, ARPE-19/EMP2 siRNA cells; details: 1 hour pretreatment, normalized to vehicle control, read-out: concentration required to achieve 50% inhibition of the gel contraction
Description: as §1
(§2) Collagen gels were prepared with collagen type I (BD Biosciences) in DMEM/F12 at a final concentration of 2.5 mg/mL. […] ARPE-19, ARPE-19/EMP2, and ARPE-19/EMP2 siRNA cells were seeded onto the collagen gels at a concentration of 2.5×10^5 cells per well and the percentage of contraction was measured at specific time intervals. […]

[3] = system: ARPE-19/EMP2 cells; test: Collagen gel contraction assay, ARPE-19/EMP2 cells; details: overexpressing ARPE-19/EMP2 cells; 1 hour pretreatment; normalized to vehicle control; read-out: concentration required to achieve 50% inhibition of the gel contraction
Description: as §1, §2

[4] = system: ARPE-19 cells; test: Migration assay (scratch wound closure); details: 50 ng/mL PDGF, 24 hours
Description: ARPE-19 and ARPE-19/EMP2 cells were seeded onto a 24-well plate and incubated for 3 days until cells reached confluence. The cells were washed with PBS, serum-free medium was added, and the cells were incubated overnight. A 10 μL pipette tip was used to make a scratch in the monolayer and the medium was removed and replaced with serum-free medium or serum-free medium that contained 50 ng/mL PDGF. Pictures of the wound were taken at various time points, and the percentage closure of the scratch was quantified with NIH Image J software. The area of the scratch was measured immediately after the wound was created. Over time, cells migrated into the cleared area; however, a gap was still visible after 24 hours. The gap size was measured and divided by the original scratch size, and this value was expressed as percentage closure.

[5] = system: ARPE-19 and ARPE-19/EMP2 cells; test: Collagen production (Sircol Collagen Assay); details: 10 ng/mL TGF-β, 72 hours, serum-free medium; compared with untreated condition
Description: ARPE-19 and ARPE-19/EMP2 cells were seeded onto a six-well plate at a concentration of 7×10^5 cells/mL in serum-free medium in the presence or absence of 10 ng/mL […]. The medium was collected after 72 hours. Secreted collagen was measured (Sircol Collagen Assay; Accurate Chemical & Scientific, Westbury, N.Y.). The collagen assay is a colorimetric procedure. The reaction product was quantified with the microplate reader at a wavelength of 540 nm. Each experiment included at least six replicates, and at least three independent experiments were performed. A Student's t-test (unpaired, one-tail) was used. P<0.05 was judged to be statistically significant.

`CC(C)(C)n1nc(-c2ccc(Cl)cc2)c2c(N)ncnc21` [PP2] was tested, and the IC50 [1] was 2500 nM, the IC50 [2] was under 1000 nM and the IC50 [3] was 5000 nM.
With PDGF the wound closure [4] was “stimulated wound closure”.
With TGF-β the collagen production [5] was “increased collagen production”.
